Test results from patent publication US20090118135A1, “METHODS AND COMPOUNDS FOR REGULATING APOPTOSIS” (The Burnham Institute, priority 2007, published 2009).
“And” between values parts separate entries of the source, which are not always exact repeats. Equal entries are not always repeated. Where two headings read alike, the source gives them in different places.

Assays:
[1] = target: T1, GST-Bcl-B (Homo sapiens, UniProt Q9HD36); assay: Bcl-B/FITC-TR3-r8 fluorescence polarization competition (displacement) assay, HTS and dose-response; settings: for Bcl-B H Coefficient: Hill coefficient of Bcl-B dose-response curve
T1 sequence (Q9HD36 1-182 limits assumed): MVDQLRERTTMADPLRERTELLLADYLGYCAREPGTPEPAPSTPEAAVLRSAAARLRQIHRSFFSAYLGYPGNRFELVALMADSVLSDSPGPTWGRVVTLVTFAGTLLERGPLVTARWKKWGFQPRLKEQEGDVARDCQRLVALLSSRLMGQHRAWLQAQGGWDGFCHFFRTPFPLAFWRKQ

[2] = target: T1, GST-Bcl-B; assay: biochemical
[3] = Table 7, NCI Mechanistic library, Binding Assay, FP, Concentration 0.02 uM
[4] = Table 8, NCI Structural library, Binding Assay, FP, Concentration 0.02 uM
[5] = read-out: Result Value (Result Type % Inhibition), BCL-b/TR3
[6] = LOPAC1280 library primary screen
[7] = LOPAC1280 library, fluorescence intensity normalized to plate negative controls
[8] = read-out: Result Value (% Inhibition)
[9] = read-out: Result Value (% Inhibition), LOPAC1280 (Sigma-Aldrich) library, BCL-b/TR3 Binding Assay, FP, Concentration 0.02 uM, % competition

O=C1C(Br)=C(N2CCN(CCOCCO)CC2)C(=O)c2c(O)ccc(O)c21 [Compound 659999]
Is Hit [1, 3]: Yes

O=C1C=C(NCCc2cc(Br)c(O)c(Br)c2)C(=O)c2ncccc21 [Compound 668394]
F Ratio [1, 4]: 0.1777 | Is Hit [1, 4]: Yes | inhibition at 0.02 µM [1, 5]: 81.8%

CN(C)CCc1c2c(nc3ccccc13)C(=O)c1cccnc1C2=O [Compound 680734]
F Ratio [1, 3]: 0.1433 | Is Hit [1, 3]: Yes | inhibition at 0.02 µM [1, 5]: 82.6%

CN(C)c1ccc(/C=c2\c3n(c4ccccc24)N(C)C(c2ccc(Cl)cc2)C=3)cc1.O=S(=O)(O)C(F)(F)F (stereo not shown) [Compound 699479]
F Ratio [1, 3]: 0.1793 | Is Hit [1, 3]: Yes | inhibition at 0.02 µM [1, 5]: 60.6%

Cc1ccc(C(=O)c2coc3c2C(=O)C(=O)C(Cl)=C3Cl)cc1 [Compound 5169132]
IC50 [2]: 6.17 µM | Bcl-B H Coefficient [1]: 1.432

O=C1C=CC(=O)C(/C(=C/NCc2ccccc2)[N+](=O)[O-])=C1 [Compound 5261378]
IC50 [2]: 5.7 µM | Bcl-B H Coefficient [1]: 3.214

Nc1ccc(S(=O)(=O)O)c2cccc(O)c12 [Compound 5265894]
IC50 [2]: 1.05 µM | Bcl-B H Coefficient [1]: 2.075

CN(C)c1ccc(NC(=O)/C=C\C(=O)O)cc1 [Compound 5374579]
IC50 [2]: 20.4 µM | Bcl-B H Coefficient [1]: 2.167

O=C1C=CC2=C3Oc4c(ccc5cc(O)ccc45)C(c4ccccc4C(=O)O)C3C=CC2=C1 (stereo not shown) [Compound 5466725]
IC50 [2]: 1.68 µM | Bcl-B H Coefficient [1]: 3.03

Cc1ccc2oc3cc(NCCCN(C)C)c4c(=O)c5ccccc5c(=O)c4c3[nH]c2c1 [Compound 5468863]
IC50 [2]: 0.673 µM | Bcl-B H Coefficient [1]: 1.907

O=C(O)c1ccc2c(c1)C1C=CCC1C(c1cccc([N+](=O)[O-])c1)N2 (stereo not shown) [Compound 5475298]
IC50 [2]: 1.75 µM | Bcl-B H Coefficient [1]: 1.336

COc1ccc(OC)c(C=NNC(=O)C2C=CN(CC(=O)c3ccccc3)C=C2)c1 [Compound 5483976]
IC50 [2]: 1.35 µM and 1.34 µM | Bcl-B H Coefficient [1]: 2.127

C(=N\c1ccc(/N=C/c2ccccn2)cc1)/c1ccccc1 [Compound 5491977]
IC50 [2]: 4.4 µM and 4.39 µM | Bcl-B H Coefficient [1]: 1.819

COc1ccc(Nc2ccc(N)cc2)cc1 [Compound 5529774]
IC50 [2]: 7.22 µM | Bcl-B H Coefficient [1]: 2.718

COc1ccccc1NC(=O)C1=C(C)NC(SCC(=O)c2ccc(Br)cc2)=C(C#N)C1c1ccco1 (stereo not shown) [Compound 5570547]
IC50 [2]: 6.24 µM | Bcl-B H Coefficient [1]: 18.57

O=C(O)c1cccc2c1NC(c1ccc([N+](=O)[O-])cc1)C1CC=CC21 (stereo not shown) [Compound 5585430]
IC50 [2]: 5.41 µM | Bcl-B H Coefficient [1]: 1.735

O=C1C(=Cc2cn(Cc3ccc(Cl)cc3)c3ccccc23)C(=O)c2ccccc21 [Compound 5603089]
IC50 [2]: 14.4 µM | Bcl-B H Coefficient [1]: 1.917

COC(=O)C1=C(C)N(C)C(=O)NC1c1cc2c(cc1[N+](=O)[O-])OCO2 (stereo not shown) [Compound 5607960]
IC50 [2]: 17.4 µM | Bcl-B H Coefficient [1]: 1.821

Oc1cccc(/C=N/C2=C(c3ccco3)N=C3C=CC=CC32)c1 (stereo not shown) [Compound 5612880]
IC50 [2]: 9.1 µM and 9.07 µM | Bcl-B H Coefficient [1]: 0.5836

CCOc1ccc(/C=C(/NC(=O)c2ccc(C)cc2)C(=O)NCCO)cc1 [Compound 5650022]
IC50 [2]: 13.3 µM | Bcl-B H Coefficient [1]: 1.428

O=C(O)C1Nc2ccc3ccccc3c2C2C=CCC12 (stereo not shown) [Compound 5657743]
IC50 [2]: 7.15 µM | Bcl-B H Coefficient [1]: 3.005

Cc1c(Cl)ccc2c1NC(C(=O)O)C1CC=CC21 (stereo not shown) [Compound 5659221]
IC50 [2]: 5.21 µM | Bcl-B H Coefficient [1]: 0.6773

COc1cc(C2Nc3ccc4ccccc4c3C3=C2C(=O)CC(C)(C)C3)c(Br)cc1O (stereo not shown) [Compound 5660965]
IC50 [2]: 13.1 µM | Bcl-B H Coefficient [1]: 1.507

O=C(O)C1Nc2c(cccc2[N+](=O)[O-])C2C=CCC12 (stereo not shown) [Compound 5665283]
IC50 [2]: 1.2 µM | Bcl-B H Coefficient [1]: 1.829

CCSc1nc(NN)c2c3c(sc2n1)CN(C)CC3 [Compound 5683054]
IC50 [2]: 7.43 µM | Bcl-B H Coefficient [1]: 1.332

Cn1c(=O)cc2c3c(c(Nc4ccc(C=O)cc4)ccc31)C(=O)c1ccccc1-2 [Compound 5719776]
IC50 [2]: 8.04 µM | Bcl-B H Coefficient [1]: 2.489

Cc1cc(C)nc(NC(=N)Nc2ccc(N)cc2)n1 [Compound 5805360]
IC50 [2]: 5.38 µM | Bcl-B H Coefficient [1]: 1.878

O=C1NN(c2ccc(F)c(Cl)c2)C(=O)/C1=C\c1ccco1 [Compound 5837788]
IC50 [2]: 33.4 µM | Bcl-B H Coefficient [1]: 1.772

O=C(O)C1C2CC=CC2c2cc(Oc3ccccc3)cc3c2N1CC1CC=CC31 (stereo not shown) [Compound 5840196]
IC50 [2]: 4.13 µM | Bcl-B H Coefficient [1]: 2.774

O=C(O)c1ccc([N+](=O)[O-])c2c1NC(c1ccccc1)C1CC=CC21 (stereo not shown) [Compound 5853021]
IC50 [2]: 3.92 µM | Bcl-B H Coefficient [1]: 2.481

C=CCN1C(=O)NC(=O)/C(=C/c2cccn2-c2cccc([N+](=O)[O-])c2)C1=O [Compound 5987504]
IC50 ([1]; Bcl-B IC50 (g/L)): 5.59 µM | IC50 ([1]; Bcl-B IC50 (uM)): 5.36 µM | Bcl-B H Coefficient [1]: 1.773

O=[N+]([O-])c1cc(O)c(O)c([N+](=O)[O-])c1 [Compound D-131]
Result Value (% Inhibition) ([1]; LOPAC1280 (Sigma-Aldrich) library, BCL-b/TR3 Binding Assay, FP, Concentration 0.02 uM, % competition): 68.095% | Is Hit [1, 6]: Yes | F Ratio [1, 7]: 0.1464

O=C(c1cc(O)c(O)c([N+](=O)[O-])c1)c1ccccc1F [Compound R-108]
Is Hit [1, 6]: Yes | F Ratio [1, 7]: 0.1164 | inhibition at 0.02 µM [1, 8]: 69.6%

Nc1c(S(=O)(=O)O)cc(Nc2ccc(Nc3nc(Cl)nc(Nc4ccc(S(=O)(=O)O)cc4)n3)c(S(=O)(=O)O)c2)c2c1C(=O)c1ccccc1C2=O [Compound R-115]
Is Hit [1, 6]: Yes | F Ratio [1, 7]: 0.1652 | inhibition at 0.02 µM [1, 8]: 80.8%

CN(N=O)c1cc(O)ccc1O [D 8065]
Is Hit [1, 6]: Yes | F Ratio [1, 7]: 0.1152 | inhibition at 0.02 µM [1, 9]: 95.3%

NC(Cc1cc(O)c(O)cc1O)C(=O)O (stereo not shown) [H 2380]
F Ratio [1]: 0.06315 | Is Hit [1]: Yes | inhibition at 0.02 µM [1, 8]: 136%

O=c1cc(O)cc(/C=C/c2ccc(O)c(O)c2)o1 [H 5257]
Is Hit [1, 6]: Yes | F Ratio [1, 7]: 0.0971 | inhibition at 0.02 µM [1, 8]: 77%

O=C1c2c(O)ccc(O)c2C(=O)c2c(NCCNCCO)ccc(NCCNCCO)c21 [M 6545]
Is Hit [1, 6]: Yes | F Ratio [1, 7]: 1.1021 | inhibition at 0.02 µM [1, 8]: 148%

O=c1c(O)c(-c2cc(O)c(O)c(O)c2)oc2cc(O)cc(O)c12 [M 6750]
Is Hit [1, 6]: Yes | F Ratio [1, 7]: 0.1247 | inhibition at 0.02 µM [1, 8]: 61%

CN(N=O)c1ccc(O)c(O)c1 [M 9440]
Is Hit [1, 6]: Yes | F Ratio [1, 7]: 0.08483 | inhibition at 0.02 µM [1, 9]: 121%

O=C(Nc1cc(C(=O)Nc2ccc(S(=O)(=O)O)cc2S(=O)(=O)O)cc(C(=O)Nc2ccc(S(=O)(=O)O)cc2S(=O)(=O)O)c1)Nc1cc(C(=O)Nc2ccc(S(=O)(=O)O)cc2S(=O)(=O)O)cc(C(=O)Nc2ccc(S(=O)(=O)O)cc2S(=O)(=O)O)c1 [N 4784]
Is Hit [1, 6]: Yes | F Ratio [1, 7]: 1.0398 | inhibition at 0.02 µM [1, 8]: 64.7%

C[C@H](Cc1ccc(O)c(O)c1)[C@@H](C)Cc1ccc(O)c(O)c1 [N 5023]
Is Hit [1, 6]: Yes | F Ratio [1, 7]: 0.09564 | inhibition at 0.02 µM [1, 8]: 67.5%

Cc1nc(/N=N\c2cc(S(=O)(=O)O)c3cc([N+](=O)[O-])cc(S(=O)(=O)O)c3c2)c(COP(=O)(O)O)c(C=O)c1O [P 2738]
Is Hit [1, 6]: Yes | F Ratio [1, 7]: 0.2636 | inhibition at 0.02 µM [1, 8]: 66.6%

O=c1c(O)c(-c2ccc(O)c(O)c2)oc2cc(O)cc(O)c12 [Q 0125]
Is Hit [1, 6]: Yes | F Ratio [1, 7]: 0.1424 | inhibition at 0.02 µM [1, 8]: 52%

[NH3+][Ru]([NH3+])([NH3+])([NH3+])([NH3+])[O][Ru]([NH3+])([NH3+])([NH3+])([NH3+])[O][Ru]([NH3+])([NH3+])([NH3+])([NH3+])[NH3+] [R 2751]
Is Hit [1, 6]: Yes | F Ratio [1, 7]: 1.1267

N#C/C(=C\c1ccc(O)c(O)c1)C(=O)c1ccc(O)c(O)c1 [T 7822]
Is Hit [1, 6]: Yes | F Ratio [1, 7]: 0.1036 | inhibition at 0.02 µM [1, 8]: 61.7%
